Data published in ChEMBL document CHEMBL4732117, “Small Molecule Approaches for Targeting the Polycomb Repressive Complex 2 (PRC2) in Cancer” (J Med Chem, 2020).
Values belong to the compound of their own block, whether it stands above or below them. Where a SMILES comes first, the peptide text is derived from it. [ ]: non-standard residue; d: D form. Lys(Me3) = C[N+](C)(C)CCCC[C@H](N)C(=O)O

Columns and labels:
[1] = Cmax in Swiss albino mouse at 150 mg/kg, ip measured after 0.08 to 24 hrs; type: ADME, organism-based; design: route intraperitoneal, time 0.08-24 hrs, dose 150 mg/kg; settings: in vivo
[2] = Time at which plasma concentration stays above cellular IC50 for inhibition of EZH2 in Swiss albino mouse at 50 mg/kg, PO; type: organism-based; settings: in vivo
[3] = Time at which plasma concentration stays above cellular IC50 for inhibition of EZH2 in Swiss albino mouse at 15 mg/kg, ip; type: organism-based; settings: in vivo
[4] = target: T1, Histone-lysine N-methyltransferase EZH2 (Homo sapiens, UniProt Q15910); assay: Inhibition of EZH2 in PRC2 complex (unknown origin) using biotinylated peptide as substrate in presence of S-adenosylmethionine
[5] = Time at which plasma concentration stays above cellular IC50 for inhibition of EZH2 in Swiss albino mouse at 50 to 150 mg/kg, ip; type: organism-based; settings: in vivo, dose 50-150 mg/kg
[6] = Drug concentration in cytoplasm of human G401 cells assessed per million cells at 10 uM incubated for 2 hrs by UPLC-MS analysis; type: ADME, subcellular; settings: g-401, 2 h
Polycomb protein EED [7] = target: T2, Polycomb protein EED (Homo sapiens, UniProt O75530); assay: Binding affinity to human N-terminal His6-tagged/thrombin cleavage site fused/ AVI-tagged EED (1 to 441 residues) expressed in Escherichia coli BL21(DE3) cells by surface plasmon resonance method
KARPAS-422 = assay: Antiproliferative activity against human Karpas422 cells after 14 days by celltiter-glo luminescent cell viability assay; type: functional; settings: KARPAS-422, 336 h, time 14 day
[8] = Drug concentration in nucleus of human G401 cells assessed per million cells at 10 uM incubated for 2 hrs by UPLC-MS analysis; type: ADME, subcellular; settings: g-401, 2 h
Polycomb protein EED [9] = target: T2, Polycomb protein EED; assay: Binding affinity to EED (unknown origin) by TR-FRET based binding assay
Polycomb protein EED [10] = target: T2, Polycomb protein EED; assay: Binding affinity to EED in PRC2 complex (unknown origin) using H3K27me0 (21 to 44 residue) peptide as substrate by LC-MS analysis
[11] = Plasma concentration in mouse xenografted with human Karpas-422 cells at 40 mg/kg, po; type: ADME, organism-based; settings: in vivo
Polycomb protein EED [12] = target: T2, Polycomb protein EED; assay: Displacement of UNC5114-biotin tracer ligand from N-terminal 6His-tagged EED (1 to 441 residues) (unknown origin) expressed in Escherichia coli Rosetta2 BL21(DE3)pLysS cells measured after 1 hr by TR-FRET analysis
[13] = Plasma concentration in Swiss albino mouse at 50 mg/kg, ip measured up to 24 hrs by LC-MS/MS analysis; type: ADME, organism-based
[14] = Plasma concentration in SCID mouse xenografted with human G-401 cells at 125 mg/kg, po BID administered for 21 days and measured at 3 hrs post dose on day 21 by LC-MS/MS analysis; type: ADME, organism-based; settings: time 21 day
[15] = target: T3, Histone-lysine N-methyltransferase EZH1 (Homo sapiens, UniProt Q92800); assay: Inhibition of EZH1 in PRC2 complex (unknown origin) using biotinylated peptide as substrate in presence of S-adenosylmethionine
T3 sequence (Q92800 whole entry): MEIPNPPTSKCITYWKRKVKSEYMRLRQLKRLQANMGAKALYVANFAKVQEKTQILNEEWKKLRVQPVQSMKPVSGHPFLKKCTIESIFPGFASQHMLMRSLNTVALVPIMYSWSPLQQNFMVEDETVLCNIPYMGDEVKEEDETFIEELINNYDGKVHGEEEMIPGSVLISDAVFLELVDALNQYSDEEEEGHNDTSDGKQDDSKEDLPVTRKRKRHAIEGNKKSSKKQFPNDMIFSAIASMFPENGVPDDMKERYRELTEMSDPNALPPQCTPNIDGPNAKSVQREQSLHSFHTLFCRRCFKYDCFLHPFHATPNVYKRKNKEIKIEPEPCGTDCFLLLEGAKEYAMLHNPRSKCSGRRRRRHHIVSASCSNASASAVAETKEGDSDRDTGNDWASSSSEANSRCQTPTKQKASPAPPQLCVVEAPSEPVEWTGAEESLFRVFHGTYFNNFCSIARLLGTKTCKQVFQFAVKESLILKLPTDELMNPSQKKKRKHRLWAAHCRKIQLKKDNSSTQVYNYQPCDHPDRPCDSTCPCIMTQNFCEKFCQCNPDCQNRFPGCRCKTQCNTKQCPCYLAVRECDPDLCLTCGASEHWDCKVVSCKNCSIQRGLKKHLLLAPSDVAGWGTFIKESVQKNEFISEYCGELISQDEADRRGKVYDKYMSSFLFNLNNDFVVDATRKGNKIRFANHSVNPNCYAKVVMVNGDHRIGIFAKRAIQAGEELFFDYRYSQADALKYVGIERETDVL

[16] = target: von Hippel-Lindau disease tumor suppressor/Polycomb protein EED (Homo sapiens) (UniProt O75530+P40337); assay: Induction of VHL-mediated EED degradation in human HeLa cells at 5 uM incubated for 24 hrs by Western blot analysis relative to control; type: cell-based
[17] = target: T1, Histone-lysine N-methyltransferase EZH2; assay: Inhibition of wild type EZH2 in human PRC2 complex using S-adenosylmethionine and biotinylated histone peptides as substrate
CT26 = assay: Antitumor activity against mouse CT26 cells implanted in NOD/SCID mouse assessed as tumor growth inhibition at 30 mg/kg, PO relative to control; type: functional; settings: read-out: TGI
Polycomb protein EED [18] = target: T2, Polycomb protein EED; assay: Displacement of OG(488) labeled probe from GST-tagged EED (unknown origin) incubated for 1 hr by lanthaScreen TR-FRET method
[19] = target: T1, Histone-lysine N-methyltransferase EZH2; assay: Inhibition of EZH2 in PRC2 complex (unknown origin) expressed in Sf9 cells using histone H3 (21 to 44)-lys (biotin) and SAM as substrate incubated for 90 mins by radiometric scintillation proximity assay
Polycomb protein EED [20] = target: T2, Polycomb protein EED; assay: Displacement of 3-FAM from N-terminal 6His-tagged full length EED (unknown origin) expressed in Escherichia coli Rosetta2 BL21(DE3)pLysS incubated for 30 mins by fluorescence polarization assay

T1 sequence (Q15910 whole entry): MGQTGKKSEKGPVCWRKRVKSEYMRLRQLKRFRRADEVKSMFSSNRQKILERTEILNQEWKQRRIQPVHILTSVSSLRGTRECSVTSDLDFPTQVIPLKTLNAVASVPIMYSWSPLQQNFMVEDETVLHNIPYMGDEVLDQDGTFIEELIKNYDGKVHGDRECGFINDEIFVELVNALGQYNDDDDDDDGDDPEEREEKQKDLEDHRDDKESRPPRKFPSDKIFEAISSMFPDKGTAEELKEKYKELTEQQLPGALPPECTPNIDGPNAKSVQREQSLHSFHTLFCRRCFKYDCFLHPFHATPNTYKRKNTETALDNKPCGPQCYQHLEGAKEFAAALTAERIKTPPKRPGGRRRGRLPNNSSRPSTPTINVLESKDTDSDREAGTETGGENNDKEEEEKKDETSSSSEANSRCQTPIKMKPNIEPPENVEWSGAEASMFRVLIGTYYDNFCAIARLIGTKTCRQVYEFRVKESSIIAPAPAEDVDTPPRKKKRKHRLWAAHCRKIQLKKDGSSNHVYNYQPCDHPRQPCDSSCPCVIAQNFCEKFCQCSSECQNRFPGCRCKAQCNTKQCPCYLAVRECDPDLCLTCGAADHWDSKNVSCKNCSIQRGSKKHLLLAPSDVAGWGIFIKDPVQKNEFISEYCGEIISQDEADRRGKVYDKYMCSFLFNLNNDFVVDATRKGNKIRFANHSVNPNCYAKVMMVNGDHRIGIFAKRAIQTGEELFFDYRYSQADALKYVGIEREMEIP
T2 sequence (O75530 whole entry, the tested form may be a part): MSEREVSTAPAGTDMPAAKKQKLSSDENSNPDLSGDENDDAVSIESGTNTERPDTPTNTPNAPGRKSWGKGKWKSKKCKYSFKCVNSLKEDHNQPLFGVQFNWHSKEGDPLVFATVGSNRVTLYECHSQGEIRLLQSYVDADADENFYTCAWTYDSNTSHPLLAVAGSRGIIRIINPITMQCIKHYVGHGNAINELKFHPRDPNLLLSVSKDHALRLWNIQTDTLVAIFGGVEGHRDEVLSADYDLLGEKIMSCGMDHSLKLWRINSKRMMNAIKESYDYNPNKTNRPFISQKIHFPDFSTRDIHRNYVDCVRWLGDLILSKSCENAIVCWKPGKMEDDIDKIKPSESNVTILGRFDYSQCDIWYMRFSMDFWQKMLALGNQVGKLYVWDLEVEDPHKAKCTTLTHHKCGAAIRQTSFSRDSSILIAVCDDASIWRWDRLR
Sequence of von Hippel-Lindau disease tumor suppressor/Polycomb protein EED (Homo sapiens) (O75530 2-441 limits assumed): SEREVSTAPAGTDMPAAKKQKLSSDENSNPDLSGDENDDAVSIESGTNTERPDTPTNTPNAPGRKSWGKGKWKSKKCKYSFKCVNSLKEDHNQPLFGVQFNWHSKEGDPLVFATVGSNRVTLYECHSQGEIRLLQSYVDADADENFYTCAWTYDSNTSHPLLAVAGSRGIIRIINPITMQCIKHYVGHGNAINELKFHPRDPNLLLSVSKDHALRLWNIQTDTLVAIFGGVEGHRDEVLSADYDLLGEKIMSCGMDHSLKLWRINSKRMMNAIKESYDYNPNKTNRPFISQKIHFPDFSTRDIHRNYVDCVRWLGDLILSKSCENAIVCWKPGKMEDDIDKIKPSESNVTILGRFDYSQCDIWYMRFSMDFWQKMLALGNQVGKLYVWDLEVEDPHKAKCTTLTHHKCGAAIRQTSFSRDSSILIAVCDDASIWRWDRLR
Sequence of von Hippel-Lindau disease tumor suppressor/Polycomb protein EED (Homo sapiens) (P40337 whole entry partner): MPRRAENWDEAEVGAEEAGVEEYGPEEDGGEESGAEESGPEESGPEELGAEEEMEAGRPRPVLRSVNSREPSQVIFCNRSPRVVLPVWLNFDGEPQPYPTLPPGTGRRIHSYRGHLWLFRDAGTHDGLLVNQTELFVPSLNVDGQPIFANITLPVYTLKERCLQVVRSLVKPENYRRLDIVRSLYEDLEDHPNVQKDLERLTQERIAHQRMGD

- Cmax [1]: 12 µM
- Time [2]: 20 h
- Time [3]: 12 h
- IC50 [4]: 2 nM
- Time [5]: 24 h
Structure (SMILES): CCCc1cc(C)[nH]c(=O)c1CNC(=O)c1cc(-c2ccc(N3CCN(C(C)C)CC3)nc2)cc2c1cnn2C(C)C

Structure (SMILES): Cc1nc(CCC(=O)NCCOc2ccc(OCC(=O)N[C@H](C(=O)N3C[C@H](O)C[C@H]3C(=O)NCc3ccc(-c4scnc4C)cc3)C(C)(C)C)cc2)ccc1-c1cnc(NCc2c(F)ccc3c2CCO3)n2cnnc12
- Drug uptake [6]: 4.69 pmol
- Kd (Polycomb protein EED [7]): < 1 nM
- GI50 (KARPAS-422): 45 nM
- Drug uptake [8]: 37.2 pmol

- Ki (Polycomb protein EED [9]): 11 nM
Structure (SMILES): CN(C)[C@H]1CN(C2CCc3cccc(F)c32)C[C@@H]1c1cn(C)c2ccccc12 (stereo not given in full)

Structure (SMILES): CS(=O)(=O)c1ccc(-c2cnc(NCc3ccco3)n3cnnc23)cc1
- IC50 (Polycomb protein EED [10]): 23.4 nM
- concentration [11]: > 30 µM
- IC50 (Polycomb protein EED [12]): 45 nM

- concentration at 24 h [13]: > 1 µM
Structure (SMILES): Cc1cc(C)c(CNC(=O)c2cc(-c3ccc(N4CCN(CCNC(=O)CC56CC7CC(CC(C7)C5)C6)CC4)nc3)cc3c2cnn3C(C)C)c(=O)[nH]1

- concentration at 504 h [14]: 8 µM
- IC50 [15]: 45 nM
Structure (SMILES): Cc1cc(C)c(CNC(=O)c2cc(-c3ccc(CN4CCOCC4)cc3)cc3c2cnn3C2CCCC2)c(=O)[nH]1

- Activity [16]: 80%
Structure (SMILES): Cc1ncsc1-c1ccc(CNC(=O)[C@@H]2C[C@@H](O)CN2C(=O)[C@@H](NC(=O)CCCNC(=O)c2ccc(-c3cnc(NCc4ccco4)n4cnnc34)cc2)C(C)(C)C)cc1

- Ki [17]: 310 nM
Structure (SMILES): Cc1cc(C)c(CNC(=O)c2cc(-c3ccc4c(c3)OCCO4)nc3c2cnn3C(C)C)c(=O)[nH]1

Structure (SMILES): Cc1ncccc1-c1cnc(NCc2c(F)ccc3c2CCO3)n2cnnc12
- inhibition in vivo at 30 mg/kg (CT26): 59%

- Ki (Polycomb protein EED [18]): 1830 nM
Structure (SMILES): CN(C)[C@H]1CN(Cc2ccccc2)C[C@@H]1c1ccc(N2CCN(S(C)(=O)=O)CC2)cc1

Structure (SMILES): Cc1nc(CCC(=O)NCCCCC(=O)N[C@H](C(=O)N2C[C@H](O)C[C@H]2C(=O)NCc2ccc(-c3scnc3C)cc2)C(C)(C)C)ccc1-c1cnc(NCc2c(F)ccc3c2CCO3)n2cnnc12
- Drug uptake [6]: 0.03 pmol
- Kd (Polycomb protein EED [7]): < 1 nM
- GI50 (KARPAS-422): 57 nM
- Drug uptake [8]: 0.79 pmol

- IC50 [19]: 11 nM
Structure (SMILES): CCCc1cc(C)[nH]c(=O)c1CNC(=O)c1cc(-c2ccc(N3CCN(C)CC3)nc2)nc2c1cnn2C(C)C

Structure (SMILES): CNC(=O)CCc1ccc(-c2cnc(NCc3c(F)ccc4c3CCO4)n3cnnc23)c(C)n1
- Drug uptake [6]: 0.34 pmol
- GI50 (KARPAS-422): 14 nM
- Drug uptake [8]: 0.19 pmol

- IC50 (Polycomb protein EED [20]): 14800 nM
Structure (SMILES): COC(=O)[C@H](C)NC(=O)[C@H](Cc1ccccc1)NC(=O)[C@H](CCCC[N+](C)(C)C)NC(=O)[C@H](CCCNC(=N)N)NC(=O)[C@@H](N)CCC(N)=O (H-QR[Lys(Me3)]FA-OMe)

- Ki [17]: 80 nM
Structure (SMILES): Cc1cc(C)c(CNC(=O)c2cc(-c3ccc(CN4CCOCC4)cc3)cc3c2cnn3C(C)C)c(=O)[nH]1
